Source: patent US20250002507A1, “7,8-DIHYDRO-5H-1,6-NAPHTHYRIDINE DERIVATIVES AS POSITIVE ALLOSTERIC MODULATORS OF THE MUSCARINIC ACETYLCHOLINE RECEPTOR M4 FOR TREATING NEUROLOGICAL AND PSYCHIATRIC DISORDERS” (Vanderbilt University, priority 2021, published 2025)

Biological target: T1, Human M4 (Homo sapiens, UniProt P08173)
T1 construct: expressed in transfected cells
T1 sequence (P08173 1-479): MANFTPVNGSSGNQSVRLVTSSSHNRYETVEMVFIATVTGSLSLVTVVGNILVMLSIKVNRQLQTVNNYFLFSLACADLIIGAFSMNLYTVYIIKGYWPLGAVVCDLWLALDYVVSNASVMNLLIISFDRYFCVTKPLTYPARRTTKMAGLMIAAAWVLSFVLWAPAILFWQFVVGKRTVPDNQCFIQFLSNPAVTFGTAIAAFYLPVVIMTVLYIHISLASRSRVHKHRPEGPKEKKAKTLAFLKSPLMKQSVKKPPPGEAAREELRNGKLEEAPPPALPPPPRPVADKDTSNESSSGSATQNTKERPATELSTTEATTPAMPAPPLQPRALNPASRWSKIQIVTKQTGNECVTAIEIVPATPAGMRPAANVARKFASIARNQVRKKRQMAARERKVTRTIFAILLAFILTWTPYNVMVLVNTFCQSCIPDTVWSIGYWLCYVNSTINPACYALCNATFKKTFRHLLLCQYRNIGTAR
Assay: mAChR M4 cell-based functional assay (calcium flux, potentiation of EC20 acetylcholine response), hM4-Gqi5 CHO-K1 cells
Conditions: Table 3; for Emax at 30 µM: CHO-K1, Human M4, % ACh maximum at 30 μM, read-out: Emax (% ACh maximum at 30 μM); for EC50: potentiation of EC20 acetylcholine response, calcium flux, CHO-K1 cells, read-out: Human M4 EC50
In short: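 CHO-K1 cells stably expressing human M4 with chimeric Gqi5, loaded with Fluo-4 AM 50 min at 37 °C; calcium flux read by FDSS. 11-point 1:3 compound curves added, then EC20 acetylcholine at 144 s; potentiation of the EC20 response fitted by four-parameter logistic to give EC50 and Emax.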

SMILES | Emax at 30 µM [%] | EC50 [nM]
Cc1c(N2CCc3ncc(NC4CCOC4)cc3C2)nn2c(C(F)(F)F)nnc2c1C (centres unmarked) [Compound 279, 6-(7,8-dimethyl-3-(trifluoromethyl)-[1,2,4]triazolo[4,3-b]pyridazin-6-yl)-N-(tetrahydrofuran-3-yl)-5,6,7,8-tetrahydro-1,6-naphthyridin-3-amine] | 86 | 1010
Cc1c(N2CCc3ncc(N4CCC(F)(F)CC4)cc3C2)nn2c(C(F)(F)F)nnc2c1C [Compound 280, 3-(4,4-difluoropiperidin-1-yl)-6-(7,8-dimethyl-3-(trifluoromethyl)-[1,2,4]triazolo[4,3-b]pyridazin-6-yl)-5,6,7,8-tetrahydro-1,6-naphthyridine] | 85 | 698
Cc1c(N2CCc3ncc(N4CCCCC4)cc3C2)nn2c(C(F)(F)F)nnc2c1C [Compound 281, 6-(7,8-dimethyl-3-(trifluoromethyl)-[1,2,4]triazolo[4,3-b]pyridazin-6-yl)-3-(piperidin-1-yl)-5,6,7,8-tetrahydro-1,6-naphthyridine] | 76 | 738
Cc1c(N2CCc3ncc(N4CCOc5ncccc54)cc3C2)nn2c(C(F)(F)F)nnc2c1C [Compound 282, 1-(6-(7,8-dimethyl-3-(trifluoromethyl)-[1,2,4]triazolo[4,3-b]pyridazin-6-yl)-5,6,7,8-tetrahydro-1,6-naphthyridin-3-yl)-2,3-dihydro-1H-pyrido[2,3-b][1,4]oxazine] | 87 | 64
Cc1c(N2CCc3nnc(Cl)cc3C2)nn2c(C(F)(F)F)nnc2c1C [Compound 283, 3-chloro-6-(7,8-dimethyl-3-(trifluoromethyl)-[1,2,4]triazolo[4,3-b]pyridazin-6-yl)-5,6,7,8-tetrahydropyrido[4,3-c]pyridazine] | 89 | 2170
Cc1c(N2CCc3ncc(N4CCCn5nccc54)cc3C2)nn2c(Cl)nnc2c1C [Compound 284, 6-(3-chloro-7,8-dimethyl-[1,2,4]triazolo[4,3-b]pyridazin-6-yl)-3-(6,7-dihydropyrazolo[1,5-a]pyrimidin-4(5H)-yl)-5,6,7,8-tetrahydro-1,6-naphthyridine] | 53 | 545
Cc1c(N2CCc3ncc(C(F)c4ccccc4)cc3C2)nn2c(C(F)(F)F)nnc2c1C (centres unmarked) [Compound 285, 6-(7,8-dimethyl-3-(trifluoromethyl)-[1,2,4]triazolo[4,3-b]pyridazin-6-yl)-3-(fluoro(phenyl)methyl)-5,6,7,8-tetrahydro-1,6-naphthyridine] | 88 | 1060
Cc1c(N2CCc3ncc(N4CCOC(C)(C)C4)cc3C2)nn2c(C(F)(F)F)nnc2c1C [Compound 286, 4-(6-(7,8-dimethyl-3-(trifluoromethyl)-[1,2,4]triazolo[4,3-b]pyridazin-6-yl)-5,6,7,8-tetrahydro-1,6-naphthyridin-3-yl)-2,2-dimethylmorpholine] | 94 | 102
COC1CCN(c2cnc3c(c2)CN(c2nn4c(C(F)(F)F)nnc4cc2C)CC3)C1 (centres unmarked) [Compound 287, 3-(3-methoxypyrrolidin-1-yl)-6-(7-methyl-3-(trifluoromethyl)-[1,2,4]triazolo[4,3-b]pyridazin-6-yl)-5,6,7,8-tetrahydro-1,6-naphthyridine] | 82 | 2360
COC1CCN(c2cnc3c(c2)CN(c2nn4c(C(F)(F)F)nnc4c(C)c2C)CC3)C1 (centres unmarked) [Compound 288, 6-(7,8-dimethyl-3-(trifluoromethyl)-[1,2,4]triazolo[4,3-b]pyridazin-6-yl)-3-(3-methoxypyrrolidin-1-yl)-5,6,7,8-tetrahydro-1,6-naphthyridine] | 77 | 940
Cc1ccc(Oc2cnc3c(c2)CN(c2nn4cnnc4c(C)c2C)CC3)c(F)c1 [Compound 289, 6-(7,8-dimethyl-[1,2,4]triazolo[4,3-b]pyridazin-6-yl)-3-(2-fluoro-4-methylphenoxy)-5,6,7,8-tetrahydro-1,6-naphthyridine] | 102 | 265
Cc1ccc(Oc2cnc3c(c2)CN(c2nn4c(C(F)(F)F)nnc4cc2C)CC3)c(F)c1 [Compound 290, 3-(2-fluoro-4-methylphenoxy)-6-(7-methyl-3-(trifluoromethyl)-[1,2,4]triazolo[4,3-b]pyridazin-6-yl)-5,6,7,8-tetrahydro-1,6-naphthyridine] | 69 | 1680
Cc1ccc(Oc2cnc3c(c2)CN(c2nn4c(C(F)(F)F)nnc4c(C)c2C)CC3)c(F)c1 [Compound 291, 6-(7,8-dimethyl-3-(trifluoromethyl)-[1,2,4]triazolo[4,3-b]pyridazin-6-yl)-3-(2-fluoro-4-methylphenoxy)-5,6,7,8-tetrahydro-1,6-naphthyridine] | 67 | 1880
COC1CCCN(c2cnc3c(c2)CN(c2nn4c(C(F)(F)F)nnc4c(C)c2C)CC3)C1 (centres unmarked) [Compound 292, 6-(7,8-dimethyl-3-(trifluoromethyl)-[1,2,4]triazolo[4,3-b]pyridazin-6-yl)-3-(3-methoxypiperidin-1-yl)-5,6,7,8-tetrahydro-1,6-naphthyridine] | 106 | 556
Cc1cc2nncn2nc1N1CCc2ncc(Oc3ccc(F)cc3F)cc2C1 [Compound 293, 3-(2,4-difluorophenoxy)-6-(7-methyl-[1,2,4]triazolo[4,3-b]pyridazin-6-yl)-5,6,7,8-tetrahydro-1,6-naphthyridine] | 96 | 155
Cc1cc2nncn2nc1N1CCc2ncc(Oc3cccc(F)c3F)cc2C1 [Compound 294, 3-(2,3-difluorophenoxy)-6-(7-methyl-[1,2,4]triazolo[4,3-b]pyridazin-6-yl)-5,6,7,8-tetrahydro-1,6-naphthyridine] | 103 | 101
Cc1cc2nncn2nc1N1CCc2ncc(Oc3cc(F)ccc3F)cc2C1 [Compound 295, 3-(2,5-difluorophenoxy)-6-(7-methyl-[1,2,4]triazolo[4,3-b]pyridazin-6-yl)-5,6,7,8-tetrahydro-1,6-naphthyridine] | 109 | 41
Cc1cc2nnc(C(F)(F)F)n2nc1N1CCc2ncc(Oc3ccc(F)cc3F)cc2C1 [Compound 296, 3-(2,4-difluorophenoxy)-6-(7-methyl-3-(trifluoromethyl)-[1,2,4]triazolo[4,3-b]pyridazin-6-yl)-5,6,7,8-tetrahydro-1,6-naphthyridine] | 96 | 1120
Cc1cc2nnc(C(F)(F)F)n2nc1N1CCc2ncc(Oc3cccc(F)c3F)cc2C1 [Compound 297, 3-(2,3-difluorophenoxy)-6-(7-methyl-3-(trifluoromethyl)-[1,2,4]triazolo[4,3-b]pyridazin-6-yl)-5,6,7,8-tetrahydro-1,6-naphthyridine] | 100 | 1100
Cc1cc2nnc(C(F)(F)F)n2nc1N1CCc2ncc(Oc3cc(F)ccc3F)cc2C1 [Compound 298, 3-(2,5-difluorophenoxy)-6-(7-methyl-3-(trifluoromethyl)-[1,2,4]triazolo[4,3-b]pyridazin-6-yl)-5,6,7,8-tetrahydro-1,6-naphthyridine] | 109 | 379
Cc1c(N2CCc3ncc(Oc4ccc(F)cc4F)cc3C2)nn2c(C(F)(F)F)nnc2c1C [Compound 299, 3-(2,4-difluorophenoxy)-6-(7,8-dimethyl-3-(trifluoromethyl)-[1,2,4]triazolo[4,3-b]pyridazin-6-yl)-5,6,7,8-tetrahydro-1,6-naphthyridine] | 111 | 216
Cc1c(N2CCc3ncc(Oc4cccc(F)c4F)cc3C2)nn2c(C(F)(F)F)nnc2c1C [Compound 300, 3-(2,3-difluorophenoxy)-6-(7,8-dimethyl-3-(trifluoromethyl)-[1,2,4]triazolo[4,3-b]pyridazin-6-yl)-5,6,7,8-tetrahydro-1,6-naphthyridine] | 87 | 969
Cc1c(N2CCc3ncc(Oc4cc(F)ccc4F)cc3C2)nn2c(C(F)(F)F)nnc2c1C [Compound 301, 3-(2,5-difluorophenoxy)-6-(7,8-dimethyl-3-(trifluoromethyl)-[1,2,4]triazolo[4,3-b]pyridazin-6-yl)-5,6,7,8-tetrahydro-1,6-naphthyridine] | 85 | 820
Cc1c(N2CCc3ncc(Oc4ccc(F)cc4F)cc3C2)nn2cnnc2c1C [Compound 302, 3-(2,4-difluorophenoxy)-6-(7,8-dimethyl-[1,2,4]triazolo[4,3-b]pyridazin-6-yl)-5,6,7,8-tetrahydro-1,6-naphthyridine] | 93 | 177
Cc1c(N2CCc3ncc(Oc4cc(F)ccc4F)cc3C2)nn2cnnc2c1C [Compound 303, 3-(2,5-difluorophenoxy)-6-(7,8-dimethyl-[1,2,4]triazolo[4,3-b]pyridazin-6-yl)-5,6,7,8-tetrahydro-1,6-naphthyridine] | 96 | 86
